{
  "source": "ChEMBL document CHEMBL3351357",
  "about": "“The enantiomers of the 1',6'-isomer of neplanocin A: synthesis and antiviral properties” (Bioorg Med Chem, 2014)",
  "key": {"[1]": {"test": "Inhibition of rabbit erythrocyte S-adenosylhomocysteine hydrolase", "set-up": "species or system Oryctolagus cuniculus"}, "Ebolavirus": {"system": "Ebolavirus", "test": "Antiviral activity against Ebolavirus Zaire infected in african green monkey Vero cells assessed as inhibition of viral-induced cytopathicity", "assay_type": "functional, cell-based", "settings": "Orthoebolavirus; call rule not given here"}, "[2]": {"test": "Cytotoxicity against human HG23 cells", "assay_type": "cell-based"}, "Human betaherpesvirus 5": {"system": "Human betaherpesvirus 5", "test": "Antiviral activity against human cytomegalovirus infected in HFF cells assessed as inhibition of viral-induced cytopathicity", "assay_type": "functional, organism-based", "settings": "Human betaherpesvirus 5, HFF"}, "Hepatitis B virus": {"system": "Hepatitis B virus", "test": "Antiviral activity against Hepatitis B virus infected in HepG2.2.15 cells assessed as inhibition of viral-induced cytopathicity", "assay_type": "functional, organism-based, HepG2 2.2.15"}, "Measles morbillivirus": {"system": "Measles morbillivirus", "test": "Antiviral activity against Measles virus infected in african green monkey Vero cells assessed as inhibition of viral-induced cytopathicity", "assay_type": "functional, organism-based"}, "Vaccinia virus": {"system": "Vaccinia virus", "test": "Antiviral activity against Vaccinia virus infected in HFF cells assessed as inhibition of viral-induced cytopathicity", "assay_type": "functional, organism-based, Orthopoxvirus vaccinia"}, "Norovirus": {"system": "Norovirus", "test": "Antiviral activity against Norovirus infected in HG23 cells assessed as inhibition of viral-induced cytopathicity", "assay_type": "functional, cell-based"}, "Dengue virus": {"system": "Dengue virus", "test": "Antiviral activity against Dengue virus infected in african green monkey Vero cells assessed as inhibition of viral-induced cytopathicity", "assay_type": "functional, organism-based"}, "[3]": {"test": "Cytotoxicity against african green monkey Vero cells", "assay_type": "cell-based", "settings": "chlorocebus sabaeus"}, "[4]": {"test": "Selectivity index, ratio of CC50 for african green monkey Vero cells to EC50 for Ebola virus Zaire virus", "assay_type": "toxicity, cell-based", "settings": "read-out: Selectivity Index"}, "[5]": {"test": "Selectivity index, ratio of CC50 for human HFF cells to EC50 for Vaccinia virus", "assay_type": "toxicity, cell-based", "settings": "read-out: Selectivity Index"}, "[6]": {"test": "Selectivity index, ratio of CC50 for human HG23 cells to EC90 for Norovirus", "assay_type": "toxicity, cell-based", "settings": "read-out: Selectivity Index"}, "[7]": {"test": "Selectivity index, ratio of CC50 for human HepG2.2.15 cells to EC90 for Hepatitis B virus", "assay_type": "toxicity", "settings": "read-out: Selectivity Index"}, "[8]": {"test": "Selectivity index, ratio of CC50 for human HG23 cells to EC50 for Norovirus", "assay_type": "toxicity, cell-based", "settings": "read-out: Selectivity Index"}, "[9]": {"test": "Selectivity index, ratio of CC50 for african green monkey Vero cells to EC50 for Measles virus", "assay_type": "toxicity, cell-based", "settings": "read-out: Selectivity Index"}, "[10]": {"test": "Cytotoxicity against human HFF cells", "assay_type": "cell-based"}, "[11]": {"test": "Selectivity index, ratio of CC50 for human HFF cells to EC90 for human cytomegalovirus", "assay_type": "toxicity, cell-based", "settings": "read-out: Selectivity Index"}, "[12]": {"test": "Selectivity index, ratio of CC50 for african green monkey Vero cells to EC50 for Dengue virus", "assay_type": "toxicity, cell-based", "settings": "read-out: Selectivity Index"}, "[13]": {"test": "Selectivity index, ratio of CC50 for human HFF cells to EC90 for Vaccinia virus", "assay_type": "toxicity, cell-based", "settings": "read-out: Selectivity Index"}, "[14]": {"test": "Selectivity index, ratio of CC50 for human HFF cells to EC50 for human cytomegalovirus", "assay_type": "toxicity, cell-based", "settings": "read-out: Selectivity Index"}, "[15]": {"test": "Selectivity index, ratio of CC50 for human HepG2.2.15 cells to EC50 for Hepatitis B virus", "assay_type": "toxicity", "settings": "read-out: Selectivity Index"}, "[16]": {"test": "Cytotoxicity against human HepG2.2.15 cells", "assay_type": "cell-based, HepG2 2.2.15"}},
  "data": [
    {"smiles": "Nc1ncnc2c1ncn2[C@@H]1C=C(CO)[C@@H](O)[C@H]1O", "note": "[NEOPLANOCIN A]", "values": [
      {"measurement": "IC50", "setting": "[1]", "result": 0.0009, "unit": "µM"}
    ]},
    {"smiles": "Nc1ncnc2c1ncn2C1=C[C@@H](CO)[C@H](O)[C@@H]1O", "values": [
      {"measurement": "EC50", "setting": "Ebolavirus", "result": 0.76, "unit": "µM"},
      {"measurement": "CC50", "setting": "[2]", "result": "> 300", "unit": "µM"},
      {"measurement": "EC50", "setting": "Human betaherpesvirus 5", "result": 3.7, "unit": "µM"},
      {"measurement": "EC90", "setting": "Human betaherpesvirus 5", "result": 6.86, "unit": "µM"},
      {"measurement": "EC50", "setting": "Hepatitis B virus; hepg2 2.2.15", "result": "Not Active"},
      {"measurement": "EC50", "setting": "Measles morbillivirus", "result": 0.72, "unit": "µM"},
      {"measurement": "EC50", "setting": "Vaccinia virus; hff", "result": "Not Active"},
      {"measurement": "EC50", "setting": "Norovirus", "result": 11, "unit": "µM"},
      {"measurement": "EC90", "setting": "Norovirus", "result": 89, "unit": "µM"},
      {"measurement": "EC50", "setting": "Dengue virus", "result": 1.3, "unit": "µM"},
      {"measurement": "CC50", "setting": "[3]", "result": 11.4, "unit": "µM"}
    ]},
    {"smiles": "Nc1ncnc2c1ncn2C1=C[C@H](CO)[C@@H](O)[C@H]1O", "values": [
      {"measurement": "EC50", "setting": "Ebolavirus", "result": 0.38, "unit": "µM"},
      {"measurement": "selectivity ratio", "setting": "[4]", "result": 3.5},
      {"measurement": "CC50", "setting": "[2]", "result": "> 100", "unit": "µM"},
      {"measurement": "EC50", "setting": "Human betaherpesvirus 5", "result": 0.11, "unit": "µM"},
      {"measurement": "EC90", "setting": "Human betaherpesvirus 5", "result": "> 10", "unit": "µM"},
      {"measurement": "selectivity ratio", "setting": "[5]", "result": "> 30"},
      {"measurement": "EC90", "setting": "Hepatitis B virus; Hepatitis B virus, HepG2 2.2.15", "result": 35, "unit": "µM"},
      {"measurement": "EC50", "setting": "Hepatitis B virus; Hepatitis B virus, HepG2 2.2.15, read-out: EC50", "result": 7.2, "unit": "µM"},
      {"measurement": "EC50", "setting": "Measles morbillivirus", "result": "< 0.38", "unit": "µM"},
      {"measurement": "selectivity ratio", "setting": "[6]", "result": "> 11"},
      {"measurement": "EC90", "setting": "Vaccinia virus; Orthopoxvirus vaccinia, HFF", "result": "> 300", "unit": "µM"},
      {"measurement": "EC50", "setting": "Vaccinia virus; Orthopoxvirus vaccinia, HFF, read-out: EC50", "result": 10.1, "unit": "µM"},
      {"measurement": "selectivity ratio", "setting": "[7]", "result": "> 3"},
      {"measurement": "EC50", "setting": "Norovirus", "result": 0.784, "unit": "µM"},
      {"measurement": "selectivity ratio", "setting": "[8]", "result": "> 128"},
      {"measurement": "selectivity ratio", "setting": "[9]", "result": "> 3.5"},
      {"measurement": "CC50", "setting": "[10]", "result": "> 49.3", "unit": "µM"},
      {"measurement": "selectivity ratio", "setting": "[11]", "result": "< 4"},
      {"measurement": "selectivity ratio", "setting": "[12]", "result": 17},
      {"measurement": "EC50", "setting": "Dengue virus", "result": 1.1, "unit": "µM"},
      {"measurement": "selectivity ratio", "setting": "[13]", "result": 1},
      {"measurement": "IC50", "setting": "[1]", "result": 0.0009, "unit": "µM"},
      {"measurement": "selectivity ratio", "setting": "[14]", "result": 448},
      {"measurement": "CC50", "setting": "[3]", "result": 1.3, "unit": "µM"},
      {"measurement": "selectivity ratio", "setting": "[15]", "result": "> 14"},
      {"measurement": "CC50", "setting": "[16]", "result": "> 100", "unit": "µM"}
    ]}
  ]
}
